{
  "source": "patent US20250145665A1",
  "about": "“MACROCYCLIC PEPTIDES USEFUL AS MODULATORS OF TNF ALPHA” (Bristol-Myers Squibb Company, priority 2023, published 2025)",
  "target": "TNFα (Homo sapiens, UniProt P01375)",
  "sequence (P01375 77-233 limits assumed)": "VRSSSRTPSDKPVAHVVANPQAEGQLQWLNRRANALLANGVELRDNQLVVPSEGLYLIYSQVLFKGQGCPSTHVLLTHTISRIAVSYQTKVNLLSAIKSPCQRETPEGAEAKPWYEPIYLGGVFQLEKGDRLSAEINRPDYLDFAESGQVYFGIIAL",
  "assay": "TNF-Induced HEK-Blue Assay",
  "type": "cell-based",
  "settings": "HEK-Blue-CD40L cells, NF-kB-driven secreted alkaline phosphatase reporter; TNFα 0.5 ng/ml; 18 h; read-out: TNF induced HEK-Blue assay IC50 value",
  "note": "pIC50: −log10 of the molar value. Positions of bridges follow the written chain, without caps; N, C: chain ends. Non-standard residues stand in square brackets, D forms with d. Residues, ends and D or L forms follow the SMILES beside them. Bip(4'-COOH) = N[C@@H](Cc1ccc(-c2ccc(C(=O)O)cc2)cc1)C(=O)O; Bip(4'-NHAc) = CC(=O)Nc1ccc(-c2ccc(C[C@H](N)C(=O)O)cc2)cc1; Ala(morpholin-4-yl) = N[C@@H](CN1CCOCC1)C(=O)O; Bip = N[C@@H](Cc1ccc(-c2ccccc2)cc1)C(=O)O; Tiq1c(1S) = O=C(O)[C@H]1NCCc2ccccc21; Hyp = O=C(O)[C@@H]1C[C@@H](O)CN1; Tic = O=C(O)[C@@H]1Cc2ccccc2CN1; Cha = N[C@@H](CC1CCCCC1)C(=O)O; Chg = N[C@H](C(=O)O)C1CCCCC1; Tle = CC(C)(C)[C@H](N)C(=O)O; Aze = O=C(O)[C@@H]1CCN1; Sar = CNCC(=O)O",
  "data": [
    {"smiles": "CC[C@H](C)[C@@H]1NC(=O)[C@@H](CCCNC(=N)N)NC(=O)[C@H](CC(=O)O)NC(=O)[C@@H]2CCCN2C(=O)CN(C)C(=O)[C@H](Cc2ccc(-c3ccc(NC(C)=O)cc3)cc2)NC(=O)[C@H](Cc2ccc(-c3ccccc3)cc2)NC(=O)[C@H](C(C)(C)C)NC(=O)CSC[C@@H](C(=O)NCC(N)=O)NC(=O)[C@H](CC(C)C)NC(=O)[C@H](Cc2ccc(O)cc2)NC(=O)[C@H](C(C)C)NC(=O)[C@@H]2CCCN2C1=O", "note": "[Example 267] ({CH2CO}-[Tle][Bip][Bip(4'-NHAc)][Sar]PD[dR]IPVYLCG-NH2; thioether N-13)", "values": [
      {"measurement": "pIC50", "value": "6.70 to 7.30"}
    ]},
    {"smiles": "CC[C@H](C)[C@@H]1NC(=O)[C@@H](CCCNC(=N)N)NC(=O)[C@H](CC(=O)O)NC(=O)[C@H](Cc2ccccc2)NC(=O)CN(C)C(=O)[C@H](Cc2ccc(-c3ccc(NC(C)=O)cc3)cc2)NC(=O)[C@H](Cc2ccc(-c3ccc(C(=O)O)cc3)cc2)NC(=O)[C@H](C(C)(C)C)NC(=O)CSC[C@@H](C(=O)NCC(N)=O)NC(=O)[C@H](CC(C)C)NC(=O)[C@H](CCCNC(=N)N)NC(=O)[C@H](C2CCCCC2)NC(=O)[C@@H]2CCCN2C1=O", "note": "[Example 268] ({CH2CO}-[Tle][Bip(4'-COOH)][Bip(4'-NHAc)][Sar]FD[dR]IP[Chg]RLCG-NH2; thioether N-13)", "values": [
      {"measurement": "pIC50", "value": "> 7.30"}
    ]},
    {"smiles": "CC[C@H](C)[C@@H]1NC(=O)[C@@H](CCCNC(=N)N)NC(=O)[C@H](CC(=O)O)NC(=O)[C@@H]2CCCN2C(=O)CN(C)C(=O)[C@H](Cc2ccc(-c3ccc(NC(C)=O)cc3)cc2)NC(=O)[C@H](Cc2ccc(-c3ccc(C(=O)O)cc3)cc2)NC(=O)[C@H](C(C)(C)C)NC(=O)CSC[C@@H](C(=O)NCC(N)=O)NC(=O)[C@H](CC(C)C)NC(=O)[C@H](Cc2ccc(O)cc2)NC(=O)[C@H](C(C)C)NC(=O)[C@@H]2CCCN2C1=O", "note": "[Example 269] ({CH2CO}-[Tle][Bip(4'-COOH)][Bip(4'-NHAc)][Sar]PD[dR]IPVYLCG-NH2; thioether N-13)", "values": [
      {"measurement": "pIC50", "value": "6.70 to 7.30"}
    ]},
    {"smiles": "CC[C@H](C)[C@@H]1NC(=O)[C@@H](CCCNC(=N)N)NC(=O)[C@H](CC(=O)O)NC(=O)[C@@H]2CCCN2C(=O)CN(C)C(=O)[C@H](Cc2ccc(-c3ccc(NC(C)=O)cc3)cc2)NC(=O)[C@H](Cc2ccc(-c3ccc(C(=O)O)cc3)cc2)NC(=O)[C@H](C(C)(C)C)NC(=O)CSC[C@@H](C(=O)NCC(N)=O)NC(=O)[C@H](CC(C)C)NC(=O)[C@H](Cc2ccc(O)cc2)NC(=O)[C@H](C2CCCCC2)NC(=O)[C@@H]2CCCN2C1=O", "note": "[Example 270] ({CH2CO}-[Tle][Bip(4'-COOH)][Bip(4'-NHAc)][Sar]PD[dR]IP[Chg]YLCG-NH2; thioether N-13)", "values": [
      {"measurement": "pIC50", "value": "6.70 to 7.30"}
    ]},
    {"smiles": "CC(=O)Nc1ccc(-c2ccc(C[C@@H]3NC(=O)[C@H](Cc4ccc(-c5ccc(C(=O)O)cc5)cc4)NC(=O)[C@H](CC4CCCCC4)NC(=O)CSC[C@@H](C(=O)NCC(N)=O)NC(=O)[C@H](CC(C)C)NC(=O)[C@H](Cc4cnc[nH]4)NC(=O)[C@H](C(C)C)NC(=O)[C@@H]4CCN4C(=O)[C@H](C(C)C)NC(=O)[C@@H](CCCNC(=N)N)NC(=O)[C@H](CC(=O)O)NC(=O)[C@H](Cc4ccc(O)cc4)NC(=O)CN(C)C3=O)cc2)cc1", "note": "[Example 271] ({CH2CO}-[Cha][Bip(4'-COOH)][Bip(4'-NHAc)][Sar]YD[dR]V[Aze]VHLCG-NH2; thioether N-13)", "values": [
      {"measurement": "pIC50", "value": "6.70 to 7.30"}
    ]},
    {"smiles": "CC(=O)Nc1ccc(-c2ccc(C[C@@H]3NC(=O)[C@H](Cc4ccc(-c5ccc(C(=O)O)cc5)cc4)NC(=O)[C@H](CC4CCCCC4)NC(=O)CSC[C@@H](C(=O)NCC(N)=O)NC(=O)[C@H](CC(C)C)NC(=O)[C@H](Cc4cnc[nH]4)NC(=O)[C@H](C4CCCCC4)NC(=O)[C@@H]4CCN4C(=O)[C@H](C(C)C)NC(=O)[C@@H](CCCNC(=N)N)NC(=O)[C@H](CC(=O)O)NC(=O)[C@H](Cc4cnc[nH]4)NC(=O)CN(C)C3=O)cc2)cc1", "note": "[Example 272] ({CH2CO}-[Cha][Bip(4'-COOH)][Bip(4'-NHAc)][Sar]HD[dR]V[Aze][Chg]HLCG-NH2; thioether N-13)", "values": [
      {"measurement": "pIC50", "value": "6.70 to 7.30"}
    ]},
    {"smiles": "CC(=O)Nc1ccc(-c2ccc(C[C@@H]3NC(=O)[C@H](Cc4ccc(-c5ccccc5)cc4)NC(=O)[C@H](CN4CCOCC4)NC(=O)CSC[C@@H](C(=O)NCC(N)=O)NC(=O)[C@H](CC(C)C)NC(=O)[C@H](Cc4cnc[nH]4)NC(=O)[C@H](C(C)C)NC(=O)[C@@H]4CCN4C(=O)[C@H](C(C)C)NC(=O)[C@@H](CCCNC(=N)N)NC(=O)[C@H](CC(=O)O)NC(=O)[C@H](Cc4ccc(O)cc4)NC(=O)CN(C)C3=O)cc2)cc1", "note": "[Example 273] ({CH2CO}-[Ala(morpholin-4-yl)][Bip][Bip(4'-NHAc)][Sar]YD[dR]V[Aze]VHLCG-NH2; thioether N-13)", "values": [
      {"measurement": "pIC50", "value": "> 7.30"}
    ]},
    {"smiles": "CC[C@H](C)[C@@H]1NC(=O)[C@@H](CCCNC(=N)N)NC(=O)[C@H](CC(=O)O)NC(=O)[C@H](Cc2cnc[nH]2)NC(=O)CN(C)C(=O)[C@H](Cc2ccc(-c3ccc(NC(C)=O)cc3)cc2)NC(=O)[C@H](Cc2ccc(-c3ccc(C(=O)O)cc3)cc2)NC(=O)[C@H](CC2CCCCC2)NC(=O)CSC[C@@H](C(=O)NCC(N)=O)NC(=O)[C@H](CC(C)C)NC(=O)[C@H](Cc2cnc[nH]2)NC(=O)[C@H](C(C)C)NC(=O)[C@@H]2Cc3ccccc3CN2C1=O", "note": "[Example 274] ({CH2CO}-[Cha][Bip(4'-COOH)][Bip(4'-NHAc)][Sar]HD[dR]I[Tic]VHLCG-NH2; thioether N-13)", "values": [
      {"measurement": "pIC50", "value": "> 7.30"}
    ]},
    {"smiles": "CC(=O)Nc1ccc(-c2ccc(C[C@@H]3NC(=O)[C@H](Cc4ccc(-c5ccc(C(=O)O)cc5)cc4)NC(=O)[C@H](CC4CCCCC4)NC(=O)CSC[C@@H](C(=O)NCC(N)=O)NC(=O)[C@H](CC(C)C)NC(=O)[C@H](Cc4ccc(O)cc4)NC(=O)[C@H](C(C)C)NC(=O)[C@@H]4Cc5ccccc5CN4C(=O)[C@H](C(C)C)NC(=O)[C@@H](CCCNC(=N)N)NC(=O)[C@H](CC(=O)O)NC(=O)[C@@H]4CCCN4C(=O)CN(C)C3=O)cc2)cc1", "note": "[Example 275] ({CH2CO}-[Cha][Bip(4'-COOH)][Bip(4'-NHAc)][Sar]PD[dR]V[Tic]VYLCG-NH2; thioether N-13)", "values": [
      {"measurement": "pIC50", "value": "6.70 to 7.30"}
    ]},
    {"smiles": "CC[C@H](C)[C@@H]1NC(=O)[C@@H](CCCNC(=N)N)NC(=O)[C@H](CC(=O)O)NC(=O)[C@H](Cc2cnc[nH]2)NC(=O)CN(C)C(=O)[C@H](Cc2ccc(-c3ccc(NC(C)=O)cc3)cc2)NC(=O)[C@H](Cc2ccc(-c3ccc(C(=O)O)cc3)cc2)NC(=O)[C@H](CC2CCCCC2)NC(=O)CSC[C@@H](C(=O)NCC(N)=O)NC(=O)[C@H](CC(C)C)NC(=O)[C@H](Cc2cnc[nH]2)NC(=O)[C@H](C(C)C)NC(=O)[C@@H]2c3ccccc3CCN2C1=O", "note": "[Example 276] ({CH2CO}-[Cha][Bip(4'-COOH)][Bip(4'-NHAc)][Sar]HD[dR]I[Tiq1c(1S)]VHLCG-NH2; thioether N-13)", "values": [
      {"measurement": "pIC50", "value": "> 7.30"}
    ]},
    {"smiles": "CC[C@H](C)[C@@H]1NC(=O)[C@@H](CCCNC(=N)N)NC(=O)[C@H](CC(=O)O)NC(=O)[C@H](Cc2cnc[nH]2)NC(=O)CN(C)C(=O)[C@H](Cc2ccc(-c3ccc(NC(C)=O)cc3)cc2)NC(=O)[C@H](Cc2ccc(-c3ccc(C(=O)O)cc3)cc2)NC(=O)[C@H](CC2CCCCC2)NC(=O)CSC[C@@H](C(=O)NCC(N)=O)NC(=O)[C@H](CC(C)C)NC(=O)[C@H](Cc2cnc[nH]2)NC(=O)[C@H](C(C)C)NC(=O)[C@@H]2C[C@@H](O)CN2C1=O", "note": "[Example 277] ({CH2CO}-[Cha][Bip(4'-COOH)][Bip(4'-NHAc)][Sar]HD[dR]I[Hyp]VHLCG-NH2; thioether N-13)", "values": [
      {"measurement": "pIC50", "value": "> 7.30"}
    ]}
  ]
}
